From publication PMC5681660, “Reduced hepatitis B and D viral entry using clinically applied drugs as novel inhibitors of the bile acid transporter NTCP” (Scientific Reports, 2017)
Counter-ions that a name gives are not always drawn. Like-named read-outs stand apart in the source and are kept apart here.

Tests used:
human NTCP [1] = target: T1, human NTCP (Homo sapiens, UniProt Q14973); assay: Screening taurocholate uptake assay (96-well, [14C]taurocholate, 10 µM drug)
T1 sequence (Q14973 1-349): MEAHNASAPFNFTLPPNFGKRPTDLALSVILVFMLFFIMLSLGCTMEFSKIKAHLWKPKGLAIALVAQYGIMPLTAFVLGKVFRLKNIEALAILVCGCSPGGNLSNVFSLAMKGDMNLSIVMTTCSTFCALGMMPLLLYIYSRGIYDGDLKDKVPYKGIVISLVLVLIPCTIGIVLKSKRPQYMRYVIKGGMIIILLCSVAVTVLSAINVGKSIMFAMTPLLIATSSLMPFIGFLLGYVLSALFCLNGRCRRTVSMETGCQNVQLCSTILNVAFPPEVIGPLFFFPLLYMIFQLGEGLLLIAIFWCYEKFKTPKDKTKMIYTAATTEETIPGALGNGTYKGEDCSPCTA

human NTCP [2] = target: T1, human NTCP; assay: Screening fluorescent competitive Myrcludex B-FITC binding assay (96-well, 10 µM drug)
[3] = Prestwick library screen, 10 µM drug, B-score of taurocholate uptake
[4] = combined ranking from functional and binding assay B-scores
[5] = Prestwick library screen, 10 µM drug, B-score of Myrcludex B-FITC binding
[6] = combined ranking from functional and binding screening assays
[7] = screen, 10 µM drug, taurocholate uptake
[8] = screen, 10 µM drug, Myrcludex B-FITC binding
[9] = Prestwick library screen, taurocholate uptake, 10 µM drug
[10] = ranking score beside the functional and binding assay B-scores of the screen
[11] = Prestwick library screen, Myrcludex B-FITC binding, 10 µM drug

Row | Compound | B-score functional assay (human NTCP [1]; [3]) | Ranking score (human NTCP [1]; [4]) | B-score binding assay (human NTCP [2]; [5]) | B-score functional assay (human NTCP [1]; [9]) | Ranking score (human NTCP [1]; [10]) | B-score binding assay (human NTCP [2]; [11]) | also measured
1 | Cc1onc(-c2ccccc2)c1C(=O)N[C@@H]1C(=O)N2[C@@H]1SC(C)(C)[C@@H]2C(=O)[O-].[Na+] [Oxacillin sodium] | 0.869 | 869.572 | 0.083 |  |  |  | 
2 | C[C@]12COC(=O)C[C@@H]1CC[C@@H]1[C@@H]2CC[C@@]2(C)[C@H]1CC[C@]2(C)O [Oxandrolone] |  |  |  |  |  |  | B-score functional assay (human NTCP [1]): -0.501; Ranking score (human NTCP [1]): 649.785; B-score binding assay (human NTCP [2]): 1.484
3 | O=C(O)CCc1nc(-c2ccccc2)c(-c2ccccc2)o1 [Oxaprozin] |  |  |  |  |  |  | Ranking score (human NTCP [1]; [6]): 341.015; B-score functional assay (human NTCP [1]; [7]): -0.957; B-score binding assay (human NTCP [2]; [8]): -0.29
4 | NC(=O)N1c2ccccc2CC(=O)c2ccccc21 [Oxcarbazepine] |  |  |  | 0.032 | 789.959 | 0.508 | 
5 | COC(=O)Nc1nc2ccc([S+]([O-])c3ccccc3)cc2[nH]1 (stereo not drawn) [Oxfendazol] | 0.699 | 1042.44 | 1.363 |  |  |  | 
6 | CCn1cc(C(=O)O)c(=O)c2cc3c(cc21)OCO3 [Oxolinic acid] |  |  |  | -0.139 | 776.518 | 1.837 | 
7 | C=CCOc1ccccc1OCC(O)CNC(C)C (stereo not drawn) [Oxprenolol hydrochloride] |  |  |  |  |  |  | Ranking score (human NTCP [1]; [6]): 434.185; B-score functional assay (human NTCP [1]; [7]): -0.061; B-score binding assay (human NTCP [2]; [8]): -0.666
8 | COc1ccc(C(=O)c2ccccc2)c(O)c1 [Oxybenzone] |  |  |  | 2.742 | 706.929 | -0.416 | 
9 | CCN(CC)CC#CCOC(=O)C(O)(c1ccccc1)C1CCCCC1 (stereo not drawn) [Oxybutynin chloride] |  |  |  | 0.163 | 808.614 | 0.285 | 
10 | Cc1cc(C(C)(C)C)c(O)c(C)c1CC1=NCCN1 [Oxymetazoline hydrochloride] | 0.493 | 1060.78 | 2.755 |  |  |  | 
11 | CCCCC1C(=O)N(c2ccccc2)N(c2ccc(O)cc2)C1=O (stereo not drawn) [Oxyphenbutazone] | 2.782 | 1000.56 | 0.23 |  |  |  | 
12 | CN(C)[C@@H]1C(O)=C(C(N)=O)C(=O)[C@@]2(O)C(O)=C3C(=O)c4c(O)cccc4[C@@](C)(O)[C@H]3[C@H](O)[C@@H]12 [Oxytetracycline dihydrate] | 0.414 | 958.668 | 1.019 |  |  |  | 
13 | Cl.O=C(O)/C=C/c1ccc(Cn2ccnc2)cc1 [Ozagrel hydrochloride] | 1.392 | 1118.41 | 1.332 |  |  |  | 
14 | CC(=O)O[C@H]1C(=O)[C@@]2(C)[C@H]([C@H](OC(=O)c3ccccc3)[C@]3(O)C[C@H](OC(=O)[C@H](O)[C@@H](NC(=O)c4ccccc4)c4ccccc4)C(C)=C1C3(C)C)[C@]1(OC(C)=O)CO[C@@H]1C[C@@H]2O [Paclitaxel] |  |  |  | -0.069 | 752.811 | 0.829 | 
15 | O=C1c2cccc3c2[C@H](CCC3)CN1[C@@H]1CN2CCC1CC2 [Palonosetron hydrochloride] |  |  |  | 1.95 | 833.96 | -0.051 | 
16 | CC(=O)O[C@H]1C[C@@H]2CC[C@@H]3[C@H](CC[C@@]4(C)[C@H]3C[C@H]([N+]3(C)CCCCC3)[C@@H]4OC(C)=O)[C@@]2(C)C[C@@H]1[N+]1(C)CCCCC1 [Pancuronium bromide] |  |  |  | 0.614 | 767.5 | -0.008 | 
17 | CC(C)(CO)[C@@H](O)C(=O)NCCCO [Panthenol (D)] | 0.501 | 899.92 | 0.428 |  |  |  | 
18 | COc1ccnc(C[S+]([O-])c2nc3ccc(OC(F)F)cc3[nH]2)c1OC (stereo not drawn) [Pantoprazole sodium] |  |  |  |  |  |  | B-score functional assay (human NTCP [1]): 0.443; Ranking score (human NTCP [1]): 878.449; B-score binding assay (human NTCP [2]): 0.377
19 | COc1ccc(Cc2nccc3cc(OC)c(OC)cc23)cc1OC [Papaverine hydrochloride] |  |  |  | -0.09 | 728.955 | 0.722 | 
20 | CCCCc1ccc2[nH]c(NC(=O)OC)nc2c1 [Parbendazole] | 1.481 | 989.697 | 0.33 |  |  |  | 
21 | C#CCN(C)Cc1ccccc1 [Pargyline hydrochloride] |  |  |  | -0.107 | 685.259 | 0.419 | 
